T1: CD40L (CD154) (Homo sapiens, UniProt P29965)
T1 sequence (P29965 108-261): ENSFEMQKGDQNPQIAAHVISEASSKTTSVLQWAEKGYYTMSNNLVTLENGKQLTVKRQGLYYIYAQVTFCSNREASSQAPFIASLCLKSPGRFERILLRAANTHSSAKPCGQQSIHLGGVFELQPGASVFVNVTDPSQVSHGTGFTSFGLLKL


What was measured:
[1] = molecular target: T1, CD40L (CD154); experiment: spectrophotometric metachromatic shift titration; assay type: binding
[2] = molecular target: bovine serum albumin (BSA) (Bos taurus, UniProt P02769); experiment: spectrophotometric metachromatic shift titration; assay type: binding
[3] = molecular target: the molecule itself; experiment: SEC

Sequence of bovine serum albumin (BSA) (P02769 25-607): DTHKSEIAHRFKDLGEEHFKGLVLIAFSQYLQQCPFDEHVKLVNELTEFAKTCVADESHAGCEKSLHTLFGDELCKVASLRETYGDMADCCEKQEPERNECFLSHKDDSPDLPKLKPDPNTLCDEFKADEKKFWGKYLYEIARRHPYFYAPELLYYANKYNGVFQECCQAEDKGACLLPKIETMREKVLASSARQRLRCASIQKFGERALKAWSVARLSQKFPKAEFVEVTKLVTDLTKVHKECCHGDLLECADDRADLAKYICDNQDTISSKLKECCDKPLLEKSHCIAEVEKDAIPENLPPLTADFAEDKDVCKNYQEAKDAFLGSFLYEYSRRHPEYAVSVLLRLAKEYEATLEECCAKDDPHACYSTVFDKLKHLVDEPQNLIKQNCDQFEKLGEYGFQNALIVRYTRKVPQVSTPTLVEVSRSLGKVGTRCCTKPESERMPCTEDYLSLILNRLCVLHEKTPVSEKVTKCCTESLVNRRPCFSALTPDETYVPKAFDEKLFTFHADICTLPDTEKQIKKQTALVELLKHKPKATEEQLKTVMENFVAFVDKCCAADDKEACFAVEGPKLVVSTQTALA

| Molecule | Kd [1] [µM] | Kd [2] [µM] | stoichiometry N [3] |
| --- | --- | --- | --- |
| O=C1OC2(c3ccccc31)c1cc(I)c(O)c(I)c1Oc1c2cc(I)c(O)c1I [ErB, erythrosine B] | 20 | 14 | – |
| recombinant human histidine-tagged extracellular CD40L (ligand, UniProt P29965 108-261, looked up) ENSFEMQKGDQNPQIAAHVISEASSKTTSVLQWAEKGYYTMSNNLVTLENGKQLTVKRQGLYYIYAQVTFCSNREASSQAPFIASLCLKSPGRFERILLRAANTHSSAKPCGQQSIHLGGVFELQPGASVFVNVTDPSQVSHGTGFTSFGLLKL | – | – | 3 |

Reference: paper PMC3618669 (Journal of molecular recognition : JMR, 2013)
